Target: T1, hMMP-13CD (Homo sapiens, UniProt P45452)
T1 construct: a human MMP-13 catalytic domain (“hMMP-13CD”)
Assay: Inhibition of MMP-13 catalytic domain (thiopeptolide substrate assay)
Format: biochemical
From the text: The assays measure the amount by which a test compound reduces the hydrolysis of a thiopeptolide substrate catalyzed by a matrix metalloproteinase enzyme. Such assays are described in detail by Ye et al., in Biochemistry, 1992;31(45):11231-11235, which is incorporated herein by reference. One such assay is described below in Biological Method 1.
Thiopeptolide substrates show virtually no decomposition or hydrolysis at or below neutral pH in the absence of a matrix metalloproteinase enzyme. A typical thiopeptolide substrate commonly utilized for assays is Ac-Pro-Leu-Gly-thioester-Leu-Leu-Gly-OEt. A 100 μL assay mixture will contain 50 mM of N-2-hydroxyethylpiperazine-N′-2-ethanesulfonic acid buffer (“HEPES,” pH 7.0), 10 mM CaCl2, 100 μM thiopeptolide substrate, and 1 mM 5,5′-dithio-bis-(2-nitro-benzoic acid) (DTNB). The thiopeptolide substrate concentration may be varied, for example from 10 to 800 μM to obtain Km and Kcat values. The change in absorbance at 405 nm is monitored on a Thermo Max microplate reader (molecular Devices, Menlo Park, Calif.) at room temperature (22° C.). The calculation of the amount of hydrolysis of the thiopeptolide substrate is based on E412=13600 M^−1 cm^−1 for the DTNB-derived product 3-carboxy-4-nitrothiophenoxide. […]

Molecule `O=C(O)c1ccc(Cn2ccc3ccc(C#CCn4ccnn4)cc3c2=O)cc1` [4-[1-oxo-7-(3-[1,2,3]triazol-1-ylprop-1-ynyl)-1H-isoquinolin-2-ylmethyl]benzoic acid] has an IC50 greater than 50 µM.
